Where two headings read alike, the source gives them in different places.
Key:
Assay type in all cases: cell-based
[1] = test system: WiDr cells (colon cancer cells; wildtype SF3B1); test: Cell viability assay (CellTiter-Glo, 72 hr), WiDr cells; conditions: Homo sapiens, read-out: WiDr GI50
Method: (§1) Cells (WiDr and Panc05.04 obtained from ATCC) were seeded in 96-well plates, with 2000 cells/100 μL/well, and incubated overnight. Spent media was removed, and fresh media containing 9 different concentrations of compound (100 μL/well) were added, with DMSO concentration from compound stock solution adjusted to be 0.1%. Each compound treatment was done in duplicate or triplicate at each concentration.
(§2) Another plate with cells seeded was dedicated as a time zero (Tz) plate, to which was added 0.1% DMSO in media (100 μL/well) followed by CellTiter-Glo® reagent (Promega Corporation, Madison, Wisconsin) (50 μL/well) for ATP measurement as a surrogate of cell viability. Average value from measurement of multiple wells of this plate is used as Tz. Compound-treated plates were incubated for 72 hr at 37° C. Then, CellTiter-Glo® reagent (50 μL/well) was added and ATP was measured. Average value from measurement of the duplicate or triplicate compound-treated wells is used as Ti, and seeded plates with medium having 0.1% DMSO without compound is used as control growth (C).
(§3) Percentage growth inhibition/Percentage viability was calculated as:
(§4) [(Ti−Tz)/(C−Tz)]×100 for concentrations for which Ti>/=Tz
(§5) [(Ti−Tz)/Tz]×100 for concentrations for which Ti<Tz.
(§6) *time zero (Tz), control growth (C), and test growth in the presence of compound (Ti) Percentage growth inhibition/Percentage viability are plotted versus compound concentration to determine Emax.
Emax refers to the maximum achievable response to a compound in a tested dose range, with a negative value indicating cellular lethality. A larger negative Emax value indicates greater cellular lethality for a particular compound. […]

[2] = test system: WiDr-R cells (colon cancer cells; chemically-induced SF3B1 R1074H mutant); test: Cell viability assay (CellTiter-Glo, 72 hr), resistant WiDr-R cells (counter-screen); conditions: WiDr-R cells (SF3B1 R1074H mutation, resistant); read-out: WiDr-R GI50
Method: as §1, §2, §3, §4, §5, §6
(§7) Emax refers to the maximum achievable response to a compound in a tested dose range, with a negative value indicating cellular lethality. A larger negative Emax value indicates greater cellular lethality for a particular compound.
The counter-screening of compounds in this viability assay with a “resistant” WiDr-R cell line may indicate whether these compounds have off-target effect(s).

[3] = test system: Panc 05.04 cells (pancreatic cancer cells; Q699H and K700E mutations in SF3B1); test: Cell viability assay (CellTiter-Glo, 72 hr), Panc 05.04 cells; conditions: for Emax: maximum achievable response in tested dose range, negative value = cellular lethality, read-out: Panc 05.04 (mt SF3B1 cells) Emax (%)
Method: as §1, §2, §3, §4, §5, §6, §7

[4] = Panc 05.04 cells (mutant SF3B1)
[5] = Panc 05.04 cells (mutant SF3B1), read-out: Panc 05.04 (mt SF3B1 cells), GI50

SMILES	GI50 ([1]; WiDr cells (wildtype SF3B1)) [nM]	GI50 [2] [nM]	Emax [3, 4] [%]	GI50 [3, 5] [nM]	GI50 ([1]; WiDr cells, 72 hr, CellTiter-Glo) [nM]	GI50 ([3]; Panc 05.04, Panc05.04 cells, 72 hr, CellTiter-Glo, read-out: Panc05.04 GI50) [nM]
CC(=O)O[C@H]1/C=C/[C@H](C)[C@@H](/C(C)=C/C=C/C(C)c2ccccc2)OC(=O)C[C@H](O)CC[C@@]1(C)O (some centres unmarked)	382	> 10000	12.3	932		
C/C(=C\C=C\[C@@H](C)COC(=O)N1CCC[C@H]1CO)[C@H]1OC(=O)C[C@H](O)CC[C@H](C)[C@@H](OC(=O)N2CCN(C)CC2)/C=C/[C@@H]1C	2.66	> 1000	-79	4.36		
CC(=O)O[C@H]1/C=C/[C@H](C)[C@@H](/C(C)=C/C=C/C(C)(O)c2ccccc2)OC(=O)C[C@H](O)CC[C@@]1(C)O (some centres unmarked)	657	> 10000	13.3	1500		
C/C(=C\C=C\[C@@H](C)COC(=O)N1CCCC1)[C@H]1OC(=O)C[C@H](OC(=O)N2CCCC2)CC[C@@](C)(O)[C@@H](OC(=O)N2CCN(C3CCCCCC3)CC2)/C=C/[C@@H]1C	77.3	> 1000		80.1		
CCC(=O)[C@@H](C)[C@H]1O[C@@H]1C[C@@](C)(O)/C=C/C=C(\C)[C@H]1OC(=O)CC(=O)CC[C@@](C)(O)[C@@H](OC(C)=O)/C=C/[C@@H]1C			-81.7	97.7		
C/C(=C\C=C\[C@@H](C)COC(=O)N1CCC(=O)C1)[C@H]1OC(=O)C[C@H](O)CC[C@@](C)(O)[C@@H](OC(=O)N2CCN(C3CCCCCC3)CC2)/C=C/[C@@H]1C	4.77	449	-93.6	2.85		
CC(=O)O[C@H]1/C=C/[C@H](C)[C@@H](/C(C)=C/C=C/[C@@H](C)COC(N)=O)OC(=O)C[C@H](O)CC[C@@]1(C)O	8130	> 10000	40.1	2090		
C/C(=C\C=C\[C@@H](C)COC(=O)N1CCC[C@H]1CF)[C@H]1OC(=O)C[C@H](O)CC[C@H](C)[C@@H](OC(=O)N2CCN(C)CC2)/C=C/[C@@H]1C	2.2	> 1000	-79.1	0.339		
C/C(=C\C=C\[C@@H](C)COC(=O)N1CC2CC2C1)[C@H]1OC(=O)C[C@H](O)CC[C@@](C)(O)[C@@H](OC(=O)N2CCN(C3CCCCCC3)CC2)/C=C/[C@@H]1C (some centres unmarked)	8.28	> 1000	-84.2	18.6		
C/C(=C\C=C\[C@@H](C)COC(=O)N1CCc2ccccc21)[C@H]1OC(=O)C[C@H](O)CC[C@@](C)(O)[C@@H](OC(=O)N2CCN(C)CC2)/C=C/[C@@H]1C	19.8	> 1000	-97	16.7		
C/C(=C\C=C\C(C)c1ccnc(N(C)C)n1)[C@H]1OC(=O)C[C@H](O)CC[C@@](C)(O)[C@@H](OC(=O)N2CCN(C)CC2)/C=C/[C@@H]1C (some centres unmarked)	252	> 1000	6.97	1290		
C/C(=C\C=C\[C@H](C)c1cccnc1)[C@H]1OC(=O)C[C@H](O)CC[C@@](C)(O)[C@@H](OC(=O)N2CCN(C3CCCCCC3)CC2)/C=C/[C@@H]1C (single isomer, unassigned) [Compound 160]					29.5	15.8
C/C(=C\C=C\[C@@H](C)c1ccccn1)[C@H]1OC(=O)C[C@H](O)CC[C@@](C)(O)[C@@H](OC(=O)N2CC3CCC(C2)N3C2CCCCCC2)/C=C/[C@@H]1C	52	> 1000	-95.7	65		
C/C(=C\C=C\[C@@H](C)COC(=O)N1CC[C@@H](F)C1)[C@H]1OC(=O)C[C@H](O)CC[C@@](C)(O)[C@@H](OC(=O)N2CCN(C3CCCCCC3)CC2)/C=C/[C@@H]1C	7.64	> 1000	-92.2	22.5		
CC(=O)O[C@H]1/C=C/[C@H](C)[C@@H](/C(C)=C/C=C/Cc2cccnc2)OC(=O)C[C@H](O)CC[C@@]1(C)O	538	> 10000	84.5	> 6400		
CC(=O)O[C@H]1/C=C/[C@H](C)[C@@H](/C(C)=C/C=C/C(C)(O)c2cccs2)OC(=O)C[C@H](O)CC[C@@]1(C)O (some centres unmarked)	473	> 10000	32.8	3790		

Reference: patent US11926619B2, “Certain pladienolide compounds and methods of use” (EISAI R&D MANAGEMENT CO., LTD., priority 2018, dated 2024)
